Tests used:
ZR-75-1 = assay: cell-proliferation assay (MTS), ZR-75-1; format: cell-based; conditions: ZR-75-1, human breast carcinoma, 168 hours
Experimental: Compound 1 was evaluated in in vitro cell-proliferation assays (BrdU assay, MTS assay, or Cell Titer Glo (CTG) assay) in multiple cancer cell lines and patient-derived organoid models to determine half-maximal inhibitory concentrations (IC50s).
Viability and BrdU thymidine incorporation assays were performed in multiwell plates seeded with cells in growth medium. After seeding, multiwell plates were cultured for 24 hours in a humidified incubator at 37° C. to promote adherence. […] The cultures were incubated for 168 hours after which the number of viable cells or the amount of thymidine incorporation in each test well was assessed by the methods as indicated above. Readouts were performed using an EnVision® Multilabel Reader (PerkinElmer, Waltham, MA) and the results were expressed as a percent of the negative control. Percent of Control values were plotted against the corresponding Compound 1 concentration and the relative IC50 value was determined from a non-linear regression curve as the concentration where inhibition was half-maximal. For cell lines where the number of IC50 determinations exceeded one, the IC50 was expressed as the mean IC50±SD.
Half-maximal inhibitory concentration (IC50) values for Compound 1 inhibition of cell proliferation were determined for nine cancer cell lines and one normal human fibroblastcell line.

[1] = system: T002C patient-derived colon cancer organoid model; assay: organoid colony formation assay, T002C; format: cell-based, human
Experimental: (§1) The IC50 values for Compound 1 inhibition of colony formation and viability were determined for the patient-derived colon cancer organoid models: SU60, T002C, SU62, SU34, SU103, T03SC, and SU106, patient-derived pancreatic cancer organoid models PA016SF, PA0143F, T016P, and T028P, and a patient-derived breast cancer organoid model FS5S3.
(§2) Colony formation and viability assays were performed in multiwell plates seeded with organoids using an in vitro culture system composed of a Matrigel layer, media containing a defined set of growth factors, and co-culture with Wnt3 A-secreting mouse embryonic fibroblasts. Assays were initiated by adding either DMSO as a negative control, or an inhibitor panobinostatat 100×IC50 concentration as a positive control, or serially diluted Compound 1. The cultures were incubated for 168 or 144 hours after which the number of viable organoids in each test well was assessed respectively using one of two detection methods: CTG or staining with calcein-AM followed by imaging and colony counting. Colony count or viability of cells treated with compound 1 was expressed as a percent of the negative control. Aggregated Percent of Control values were plotted against the corresponding Compound 1 concentration and the absolute IC50 value was determined from a non-linear regression curve as the concentration where inhibition was 50% of the control.

[2] = system: SU62 patient-derived colon cancer organoid model; assay: organoid colony formation assay, SU62; format: cell-based, human
Experimental: as §1, §2

[3] = system: T035C patient-derived colon cancer organoid model; assay: organoid colony formation assay, T035C; format: cell-based, human
Experimental: as §1, §2

[4] = system: T028P patient-derived pancreatic cancer organoid model; assay: organoid colony formation assay, T028P; format: cell-based, human
Experimental: as §1, §2

[5] = system: immature and mature cell markers in SU60 xenograft tumor cells; assay: single cell gene expression analysis (RT-qPCR) of SU60 xenograft tumors; format: in vivo; conditions: treated vs vehicle
Source text: FIG. 22 illustrates the heatmap representation of single cells gene expression analysis (RT-qPCR) from SU60 xenograft tumors treated with vehicle control or Compound 1. A) Heatmap representation of single cells gene expression analysis (RT-qPCR) from SU60 xenograft tumors treated with vehicle control or Compound 1. Gene expression levels are colored-coded with red for high expression, green low expression and gray not expressed. Three clusters of cells were identified based on shared patterns of gene expression using a gene-set of immature and mature cell markers. […] The top dendrogram clusters genes with similar expression pattern across all cells. Gene expression (in Ct values) was mean-centered at 0 and divided by 2.5 time the standard deviation. B) This graph represents the total number of vehicle-treated and compound 1 treated cells within each cluster. P-values (Fisher's exact test) are represented on top of the bars.
Vehicle control and Compound 1-treated samples were characterized by single cell transcriptional profiling with a gene-set designed to discriminate immature colon progenitor cells and more mature cell-types (Dalerba, 2011). […] Using hierarchical clustering analysis, three clusters based on expression of a subset of immature and mature cell markers were identified. […]

H3K36me3 = assay: dose-dependent inhibition of histone demethylase, H3K36me3 immunoblot; format: cell-based; conditions: FIG. 6
Experimental: FIG. 6 illustrates the dose-dependent inhibition of histone demethylase by Compound 1. Left Panel: Representative immunoblot showing change in staining intensity for actin (red bands) and H3K36me3 (green bands) in response to Compound 1 at various concentrations. Right Panel: Normalized ratio of band intensities for H3K36me3 and actin versus the concentration of Compound 1 (μM). (mean IC50±SD value−0.085±0.004 μM).

CC(C)c1ccc(N(C)c2ccc3c(c2)OCC[C@H]3CNc2cnccc2C(=O)O)cc1 [Compound 1, 3-({[(4R)-7-{methyl[4-(propan-2-yl)phenyl]amino}-3,4-dihydro-2H-1-benzopyran-4-yl]methyl}amino)pyridine-4-carboxylic acid] showed an IC50 (ZR-75-1) of over 10000 nM, an IC50 ([1]; Homo sapiens, T002C colorectal carcinoma model) of under 150 nM and an IC50 ([1]; T002C human colorectal carcinoma organoid, 144 hrs, Colony Counts) of 22 nM. For the same molecule, the IC50 ([2]; Homo sapiens, SU62 colorectal carcinoma model) was under 150 nM, the IC50 ([2]; SU62 human colorectal carcinoma organoid, 144 hrs, Colony Counts) was 149 nM and the IC50 ([3]; Homo sapiens, T035C colorectal carcinoma model) was over 10000 nM. The IC50 ([3]; T035C human colorectal carcinoma organoid, 144 hrs, Colony Counts) was over 10000 nM, the IC50 ([4]; Homo sapiens, T028P pancreatic carcinoma model) was over 10000 nM and the IC50 ([4]; T028P human pancreatic carcinoma organoid, 144 hrs, Colony Counts) was over 10000 nM. For the same molecule, the “change in the proportion of progenitor-like cells” value ([5]; p=0.01) was “significant reduction”, the “change in number of intermediate-like and differentiated-like cells” value ([5]; p=0.07) was “increase was not significant” and the “mean IC50±SD, H3K36me3/actin band intensity ratio” value (H3K36me3) was 85 ± 4 nM.

Source: patent publication US20250025451A1, “TREATMENT OF CANCER WITH KDM4 INHIBITORS” (Celgene Corporation, priority 2021, published 2025)
